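Where inhibition never reached the appropriate level, the endpoint shown equals the highest concentration tested. Otherwise, values were interpolated linearly from a five-concentration, 48-hour dose response in 96-well plates. The concentration for 50% growth inhibition is given as GI50.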 Active and inactive are the calls of the source. Cut-off read from the data, not from the text of the source: active = GI50 up to about 1.1 µM and inactive = higher.
Legend:
Assay in all cases: NCI tumour cell line growth inhibition, 48 h
786-0 = tested on: 786-0
A498 = tested on: A498
A549 = tested on: A549
ACHN = tested on: ACHN
BT-549 = tested on: BT-549
CAKI-1 = tested on: CAKI-1
COLO 205 = tested on: COLO 205
DU-145 = tested on: DU-145
EKVX = tested on: EKVX
HCC 2998 = tested on: HCC 2998
HCT-116 = tested on: HCT-116
HCT-15 = tested on: HCT-15
HL-60 = tested on: HL-60
HOP-62 = tested on: HOP-62
HT-29 = tested on: HT-29
Hs-578T = tested on: Hs-578T
IGROV-1 = tested on: IGROV-1
K562 = tested on: K562
LOX IMVI = tested on: LOX IMVI
M14 = tested on: M14
MCF7 = tested on: MCF7
MDA-MB-231 = tested on: MDA-MB-231
MDA-MB-435 = tested on: MDA-MB-435
MOLT-4 = tested on: MOLT-4
Malme-3M = tested on: Malme-3M
NCI-H226 = tested on: NCI-H226
NCI-H23 = tested on: NCI-H23
NCI-H460 = tested on: NCI-H460
NCI-H522 = tested on: NCI-H522
NCI/ADR-RES = tested on: NCI/ADR-RES
OVCAR-3 = tested on: OVCAR-3
OVCAR-4 = tested on: OVCAR-4
OVCAR-5 = tested on: OVCAR-5
OVCAR-8 = tested on: OVCAR-8
PC-3 = tested on: PC-3
RPMI-8226 = tested on: RPMI-8226
RXF 393 = tested on: RXF 393
SF-268 = tested on: SF-268
SF-295 = tested on: SF-295
SF-539 = tested on: SF-539
SK-MEL-28 = tested on: SK-MEL-28
SK-MEL-2 = tested on: SK-MEL-2
SK-MEL-5 = tested on: SK-MEL-5
SK-OV-3 = tested on: SK-OV-3
SN12C = tested on: SN12C
SNB-19 = tested on: SNB-19
SW-620 = tested on: SW-620
TK-10 = tested on: TK-10
U-251 = tested on: U-251
UACC-257 = tested on: UACC-257
UACC-62 = tested on: UACC-62
HOP-92 = tested on: HOP-92
KM12 = tested on: KM12
MDA-N = tested on: MDA-N
SNB-75 = tested on: SNB-75
SR = tested on: SR
T47D = tested on: T47D
UO-31 = tested on: UO-31
CCRF-CEM = tested on: CCRF-CEM

Compound: FC(F)(F)c1nc2cc(SSc3cc4nc(C(F)(F)F)[nH]c4cc3Cl)c(Cl)cc2[nH]1
- GI50 (786-0): > 100 µM (inactive)
- GI50 (A498): > 100 µM (inactive)
- GI50 (A549): > 100 µM (inactive)
- GI50 (ACHN): > 100 µM (inactive)
- GI50 (BT-549): > 100 µM (inactive)
- GI50 (CAKI-1): > 100 µM (inactive)
- GI50 (COLO 205): 53.7 µM (inactive)
- GI50 (DU-145): > 100 µM (inactive)
- GI50 (EKVX): > 100 µM (inactive)
- GI50 (HCC 2998): > 100 µM (inactive)
- GI50 (HCT-116): > 100 µM (inactive)
- GI50 (HCT-15): > 100 µM
- GI50 (HL-60): > 100 µM (inactive)
- GI50 (HOP-62): > 100 µM (inactive)
- GI50 (HT-29): > 100 µM (inactive)
- GI50 (Hs-578T): > 100 µM (inactive)
- GI50 (IGROV-1): > 100 µM (inactive)
- GI50 (K562): > 100 µM (inactive)
- GI50 (LOX IMVI): > 100 µM (inactive)
- GI50 (M14): > 100 µM (inactive)
- GI50 (MCF7): 65.5 µM (inactive)
- GI50 (MDA-MB-231): > 100 µM (inactive)
- GI50 (MDA-MB-435): > 100 µM (inactive)
- GI50 (MOLT-4): > 100 µM (inactive)
- GI50 (Malme-3M): 82.8 µM (inactive)
- GI50 (NCI-H226): 53.3 µM (inactive)
- GI50 (NCI-H23): > 100 µM (inactive)
- GI50 (NCI-H460): > 100 µM (inactive)
- GI50 (NCI-H522): 66.4 µM (inactive)
- GI50 (NCI/ADR-RES): > 100 µM (inactive)
- GI50 (OVCAR-3): 45.2 µM (inactive)
- GI50 (OVCAR-4): 92.5 µM (inactive)
- GI50 (OVCAR-5): > 100 µM (inactive)
- GI50 (OVCAR-8): > 100 µM (inactive)
- GI50 (PC-3): > 100 µM (inactive)
- GI50 (RPMI-8226): > 100 µM (inactive)
- GI50 (RXF 393): > 100 µM (inactive)
- GI50 (SF-268): > 100 µM (inactive)
- GI50 (SF-295): > 100 µM (inactive)
- GI50 (SF-539): > 100 µM (inactive)
- GI50 (SK-MEL-28): > 100 µM (inactive)
- GI50 (SK-MEL-2): > 100 µM (inactive)
- GI50 (SK-MEL-5): 65.3 µM (inactive)
- GI50 (SK-OV-3): > 100 µM (inactive)
- GI50 (SN12C): > 100 µM (inactive)
- GI50 (SNB-19): > 100 µM (inactive)
- GI50 (SW-620): > 100 µM (inactive)
- GI50 (TK-10): > 100 µM (inactive)
- GI50 (U-251): > 100 µM (inactive)
- GI50 (UACC-257): 93.1 µM (inactive)
- GI50 (UACC-62): > 100 µM (inactive)

Compound: COC(=O)C1CCC(=O)N1CN(C(C)=O)c1ccccc1Cl (stereo not given)
- GI50 (786-0): > 100 µM (inactive)
- GI50 (A498): > 100 µM (inactive)
- GI50 (A549): > 100 µM (inactive)
- GI50 (ACHN): > 100 µM (inactive)
- GI50 (CAKI-1): > 100 µM (inactive)
- GI50 (COLO 205): > 100 µM (inactive)
- GI50 (DU-145): > 100 µM (inactive)
- GI50 (EKVX): > 100 µM (inactive)
- GI50 (HCC 2998): > 100 µM (inactive)
- GI50 (HCT-116): > 100 µM (inactive)
- GI50 (HCT-15): > 100 µM
- GI50 (HOP-62): > 100 µM (inactive)
- GI50 (HOP-92): > 100 µM (inactive)
- GI50 (HT-29): > 100 µM (inactive)
- GI50 (Hs-578T): > 100 µM (inactive)
- GI50 (IGROV-1): > 100 µM (inactive)
- GI50 (K562): > 10 µM (inactive)
- GI50 (KM12): > 100 µM (inactive)
- GI50 (LOX IMVI): > 100 µM (inactive)
- GI50 (M14): > 100 µM (inactive)
- GI50 (MCF7): > 100 µM (inactive)
- GI50 (MDA-MB-231): > 100 µM (inactive)
- GI50 (MDA-MB-435): > 100 µM (inactive)
- GI50 (MDA-N): > 100 µM (inactive)
- GI50 (MOLT-4): > 100 µM (inactive)
- GI50 (Malme-3M): > 100 µM (inactive)
- GI50 (NCI-H226): > 100 µM (inactive)
- GI50 (NCI-H23): > 100 µM (inactive)
- GI50 (NCI-H460): > 100 µM (inactive)
- GI50 (NCI-H522): > 100 µM (inactive)
- GI50 (NCI/ADR-RES): > 100 µM (inactive)
- GI50 (OVCAR-3): > 100 µM (inactive)
- GI50 (OVCAR-4): > 100 µM (inactive)
- GI50 (OVCAR-5): > 100 µM (inactive)
- GI50 (OVCAR-8): > 100 µM (inactive)
- GI50 (PC-3): > 100 µM (inactive)
- GI50 (RPMI-8226): > 100 µM (inactive)
- GI50 (RXF 393): > 100 µM (inactive)
- GI50 (SF-268): > 100 µM (inactive)
- GI50 (SF-295): > 100 µM (inactive)
- GI50 (SF-539): > 100 µM (inactive)
- GI50 (SK-MEL-28): > 100 µM (inactive)
- GI50 (SK-MEL-2): > 100 µM (inactive)
- GI50 (SK-MEL-5): > 100 µM (inactive)
- GI50 (SK-OV-3): > 100 µM (inactive)
- GI50 (SN12C): > 100 µM (inactive)
- GI50 (SNB-19): > 100 µM (inactive)
- GI50 (SNB-75): > 100 µM (inactive)
- GI50 (SR): > 100 µM (inactive)
- GI50 (SW-620): > 100 µM (inactive)
- GI50 (T47D): > 100 µM (inactive)
- GI50 (TK-10): > 100 µM (inactive)
- GI50 (U-251): > 100 µM (inactive)
- GI50 (UACC-257): > 100 µM (inactive)
- GI50 (UACC-62): > 100 µM (inactive)
- GI50 (UO-31): > 100 µM (inactive)

Compound: O=c1[nH]c(=O)n(C2OC(CO)C(O)C2O)cc1OCCc1ccccc1 (stereo not given)
- GI50 (786-0): > 100 µM (inactive)
- GI50 (A498): > 100 µM (inactive)
- GI50 (A549): > 100 µM (inactive)
- GI50 (ACHN): > 100 µM (inactive)
- GI50 (CAKI-1): > 100 µM (inactive)
- GI50 (CCRF-CEM): > 100 µM (inactive)
- GI50 (COLO 205): > 100 µM (inactive)
- GI50 (DU-145): > 100 µM (inactive)
- GI50 (EKVX): > 100 µM (inactive)
- GI50 (HCC 2998): > 100 µM (inactive)
- GI50 (HCT-116): > 100 µM (inactive)
- GI50 (HCT-15): > 100 µM
- GI50 (HL-60): > 100 µM (inactive)
- GI50 (HOP-62): > 100 µM (inactive)
- GI50 (HOP-92): > 100 µM (inactive)
- GI50 (HT-29): > 100 µM (inactive)
- GI50 (Hs-578T): > 100 µM (inactive)
- GI50 (IGROV-1): > 100 µM (inactive)
- GI50 (KM12): > 100 µM (inactive)
- GI50 (LOX IMVI): > 100 µM (inactive)
- GI50 (M14): > 100 µM (inactive)
- GI50 (MCF7): > 100 µM (inactive)
- GI50 (MDA-MB-231): > 100 µM (inactive)
- GI50 (MDA-MB-435): > 100 µM (inactive)
- GI50 (MDA-N): > 100 µM (inactive)
- GI50 (MOLT-4): > 100 µM (inactive)
- GI50 (Malme-3M): > 100 µM (inactive)
- GI50 (NCI-H226): > 100 µM (inactive)
- GI50 (NCI-H23): > 100 µM (inactive)
- GI50 (NCI-H460): > 100 µM (inactive)
- GI50 (NCI-H522): > 100 µM (inactive)
- GI50 (NCI/ADR-RES): > 100 µM (inactive)
- GI50 (OVCAR-3): > 100 µM (inactive)
- GI50 (OVCAR-4): > 100 µM (inactive)
- GI50 (OVCAR-5): > 100 µM (inactive)
- GI50 (OVCAR-8): > 100 µM (inactive)
- GI50 (PC-3): > 100 µM (inactive)
- GI50 (RXF 393): > 100 µM (inactive)
- GI50 (SF-268): > 100 µM (inactive)
- GI50 (SF-295): > 100 µM (inactive)
- GI50 (SF-539): > 100 µM (inactive)
- GI50 (SK-MEL-28): > 100 µM (inactive)
- GI50 (SK-MEL-2): > 100 µM (inactive)
- GI50 (SK-MEL-5): > 100 µM (inactive)
- GI50 (SK-OV-3): > 100 µM (inactive)
- GI50 (SN12C): > 100 µM (inactive)
- GI50 (SNB-19): > 100 µM (inactive)
- GI50 (SR): > 100 µM (inactive)
- GI50 (SW-620): > 100 µM (inactive)
- GI50 (T47D): > 100 µM (inactive)
- GI50 (TK-10): > 100 µM (inactive)
- GI50 (UACC-257): > 100 µM (inactive)
- GI50 (UACC-62): > 100 µM (inactive)

Source: ChEMBL document CHEMBL1201862, “PubChem BioAssay data set” (2004)
